EC50, Emax and metabolite profile data for 18 molecules are collected here from patent publication US20240336572A1, “SUBSTITUTED INDAZOLE PROPIONIC ACID DERIVATIVE COMPOUNDS AND USES THEREOF” (Pfizer Inc., priority 2023, published 2024).

A word on the EC50: it is the midpoint of the concentration-response curve. The term Emax denotes the size of the effect at its maximum, as opposed to the concentration needed.

The target in one data set is T1, AMPK 111 (Homo sapiens, UniProt Q13131+Q9Y478).
T1 construct: open reading frames encoding the full-length α1, β1 and δ1 subunits of human AMPK; made in house; host or cells: E. coli BL21-CodonPlus (DE3)-RIPL, pET-14b
T1 sequence (Q13131 whole entry): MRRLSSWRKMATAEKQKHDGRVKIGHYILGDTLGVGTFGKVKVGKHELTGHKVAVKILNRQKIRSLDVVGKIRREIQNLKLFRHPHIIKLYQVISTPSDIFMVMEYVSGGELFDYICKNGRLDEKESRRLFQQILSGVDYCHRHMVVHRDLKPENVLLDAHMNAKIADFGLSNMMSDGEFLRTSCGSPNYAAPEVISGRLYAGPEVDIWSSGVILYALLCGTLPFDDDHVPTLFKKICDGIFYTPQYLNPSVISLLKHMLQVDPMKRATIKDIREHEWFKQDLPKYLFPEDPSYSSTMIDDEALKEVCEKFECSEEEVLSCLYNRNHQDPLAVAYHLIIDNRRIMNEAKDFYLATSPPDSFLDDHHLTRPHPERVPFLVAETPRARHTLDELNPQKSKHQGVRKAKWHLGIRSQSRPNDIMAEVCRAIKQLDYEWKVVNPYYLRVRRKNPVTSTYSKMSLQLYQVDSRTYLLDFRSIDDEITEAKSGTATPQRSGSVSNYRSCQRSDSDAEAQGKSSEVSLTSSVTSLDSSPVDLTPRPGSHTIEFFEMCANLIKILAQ
T1 sequence (Q9Y478 whole entry): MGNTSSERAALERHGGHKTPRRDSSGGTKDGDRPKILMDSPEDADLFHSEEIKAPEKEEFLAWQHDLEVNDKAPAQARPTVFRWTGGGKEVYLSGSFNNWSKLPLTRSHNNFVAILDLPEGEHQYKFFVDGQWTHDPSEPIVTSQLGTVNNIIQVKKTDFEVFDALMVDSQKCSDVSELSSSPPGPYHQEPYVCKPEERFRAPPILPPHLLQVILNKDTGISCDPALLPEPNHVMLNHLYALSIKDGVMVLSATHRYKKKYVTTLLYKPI
T1 sequence (P54619 whole entry partner): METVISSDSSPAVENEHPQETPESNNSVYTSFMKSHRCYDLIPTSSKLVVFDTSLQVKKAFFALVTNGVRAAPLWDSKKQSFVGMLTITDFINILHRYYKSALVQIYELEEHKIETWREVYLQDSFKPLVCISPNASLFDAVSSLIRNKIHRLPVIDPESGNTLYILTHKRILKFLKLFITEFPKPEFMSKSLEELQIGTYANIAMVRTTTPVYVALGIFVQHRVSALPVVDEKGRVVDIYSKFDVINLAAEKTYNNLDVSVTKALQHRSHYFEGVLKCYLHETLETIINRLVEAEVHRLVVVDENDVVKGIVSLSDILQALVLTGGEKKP
Kind of data set: Biochemical profiling of AMPK activators by AMPK111 (HTRF/TR-FRET assay, SAMS peptide, PP2A dephosphorylation protection). Particulars: for EC50: phosphorylated AMPK 111 (α1β1δ1 as printed), 11 point dilution, duplicate, 4-parameter fit; for Emax: phosphorylated AMPK 111, maximal activation. On the technique in general: Time-resolved FRET reads energy transfer from a long-lived donor to a nearby acceptor.

In a further data set the target is T2, AMPK 221 (Homo sapiens, UniProt O43741+P54646).
T2 construct: open reading frames encoding the full-length α2, β2 and δ1 subunits of human AMPK; made in house; host or cells: E. coli BL21-CodonPlus (DE3)-RIPL, pET-14b
T2 sequence (P54646 whole entry): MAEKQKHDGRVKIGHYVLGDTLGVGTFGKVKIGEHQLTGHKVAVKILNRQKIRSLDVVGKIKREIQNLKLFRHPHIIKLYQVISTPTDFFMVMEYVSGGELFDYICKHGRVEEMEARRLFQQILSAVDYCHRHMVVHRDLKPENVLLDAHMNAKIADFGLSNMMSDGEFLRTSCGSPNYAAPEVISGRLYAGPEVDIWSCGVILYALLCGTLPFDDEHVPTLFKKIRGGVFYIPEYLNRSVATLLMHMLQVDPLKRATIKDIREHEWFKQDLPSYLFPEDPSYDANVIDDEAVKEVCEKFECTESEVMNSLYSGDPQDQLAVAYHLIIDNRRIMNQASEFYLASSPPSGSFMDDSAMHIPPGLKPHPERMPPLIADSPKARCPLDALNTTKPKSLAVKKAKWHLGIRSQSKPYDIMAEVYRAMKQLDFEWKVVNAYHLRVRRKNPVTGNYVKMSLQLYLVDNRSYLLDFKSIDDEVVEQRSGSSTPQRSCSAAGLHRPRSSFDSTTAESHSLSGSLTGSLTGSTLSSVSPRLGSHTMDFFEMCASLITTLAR
T2 sequence (O43741 whole entry): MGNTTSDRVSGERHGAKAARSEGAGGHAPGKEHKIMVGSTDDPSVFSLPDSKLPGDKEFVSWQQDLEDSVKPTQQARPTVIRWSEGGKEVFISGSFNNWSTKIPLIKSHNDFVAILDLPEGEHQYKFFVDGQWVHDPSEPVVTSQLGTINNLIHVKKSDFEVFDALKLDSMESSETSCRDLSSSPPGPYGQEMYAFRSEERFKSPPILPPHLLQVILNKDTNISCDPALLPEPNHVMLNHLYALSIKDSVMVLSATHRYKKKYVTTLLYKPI
T2 sequence (P54619 whole entry partner): as the sequence (P54619 whole entry partner) above
Kind of data set: Biochemical profiling of AMPK activators by AMPK221 (HTRF/TR-FRET assay, SAMS peptide, PP2A dephosphorylation protection). Particulars: for EC50: phosphorylated AMPK 221 (α2β2δ1), 11 point dilution, duplicate, 4-parameter fit; for Emax: phosphorylated AMPK 221, maximal activation.

Data set [1] is described as follows: Metabolite profile in liver microsomes, hepatocytes, recombinant human P450 and UGT enzymes, and animal plasma. Conditions: liver microsomes and hepatocytes (mouse, rat, rabbit, dog, monkey, human). The format is in vitro ADME. Here is the method: The metabolite profile of Example 1 is evaluated in liver microsomes and hepatocytes (mouse, rat, rabbit, dog, monkey, and human), recombinant human cytochrome P450 enzymes, recombinant human UGT enzymes, and plasma from animals (mouse, rat, and dog).

As for `NS(=O)(=O)c1ccc(-c2ccc(-c3cc4c(CCC(=O)O)n[nH]c4cc3Cl)cc2)c(O)c1` [Example 9, 3-(6-chloro-5-(2′-hydroxy-4′-sulfamoyl-[1,1′-biphenyl]-4-yl)-1H-indazol-3-yl)propanoic acid], the figures for the EC50 at AMPK 111 and at AMPK 221 were 11 nM and 41 nM, respectively. The maximum response (Emax) at AMPK 111 is 90%; on AMPK 221, 68%.

Consider `O=C(O)CCc1n[nH]c2cc(Cl)c(-c3ccc(-c4ccc(OC(F)F)cc4O)cc3)cc12` [Example 69, 3-(6-chloro-5-(4′-(difluoromethoxy)-2′-hydroxy-[1,1′-biphenyl]-4-yl)-1H-indazol-3-yl)propanoic acid], for which the EC50 on AMPK 111 was found to be 480 nM; at AMPK 221 it was 1150 nM. Besides, the maximum response (Emax) amounted to 73% on AMPK 111 and 58% at AMPK 221.

On AMPK 111, `O=C(O)CCc1c[nH]c2cc(Cl)c(-c3ccc(-c4ccccc4O)cc3)cc12` [Example 4, 3-(6-Chloro-5-(2′-hydroxy-[1,1′-biphenyl]-4-yl)-1H-indol-3-yl)propanoic acid] had an EC50 of 62 nM and an Emax of 74%. On AMPK 221, this molecule showed an EC50 of 665 nM and an Emax of 34%.

As to `O=C(O)CSc1n[nH]c2cc(Cl)c(-c3ccc(-c4ccccc4O)cc3)cc12` [Example 11, 2-((6-chloro-5-(2′-hydroxy-[1,1′-biphenyl]-4-yl)-1H-indazol-3-yl)thio)acetic acid], on AMPK 111, the EC50 worked out at 53 nM and the Emax was determined as 62%. In addition, on AMPK 221, the EC50 stood at 60 nM and the Emax was 44%.

With `O=C(O)CCc1n[nH]c2cc(Cl)c(-c3ccc(-c4ccccc4O)cc3)nc12` [Example 73, 3-(6-chloro-5-(2′-hydroxy-[1,1′-biphenyl]-4-yl)-1H-pyrazolo[4,3-b]pyridin-3-yl)propanoic acid], on AMPK 111, the EC50 was 26 nM and the Emax turned out to be 86%. On AMPK 221, this molecule yielded an EC50 of 2110 nM and an Emax of 30%.

Consider `O=C(O)CCc1n[nH]c2cc(Cl)c(-c3ccc(-c4cccc(CO)c4)cc3)cc12` [Example 61, 3-(6-chloro-5-(3′-(hydroxymethyl)-[1,1′-biphenyl]-4-yl)-1H-indazol-3-yl)propanoic acid], for which, at AMPK 111, the 50% effective concentration (EC50) came out at 692 nM and the Emax was determined as 55%. Moreover, on AMPK 221, the EC50 was 645 nM and the Emax was found to be 34%.

Consider `COc1c(Cl)ccc(-c2ccc(-c3cc4c(CCC(=O)O)n[nH]c4cc3Cl)cc2)c1O` [Example 28, 3-(6-chloro-5-(4′-chloro-2′-hydroxy-3′-methoxy-[1,1′-biphenyl]-4-yl)-1H-indazol-3-yl)propanoic acid], for which, on AMPK 111, the midpoint of the response, the EC50, lay at 277 nM and the Emax came out at 73%. Moreover, on AMPK 221, it took 136 nM to reach a half-maximal effect (EC50) and the Emax came out at 63%.

For `NC(c1ccc(-c2ccc(-c3cc4c(CCC(=O)O)n[nH]c4cc3Cl)cc2)c(O)c1)C(F)(F)F` (stereo not shown) [Example 13, 3-(5-(4′-(1-amino-2,2,2-trifluoroethyl)-2′-hydroxy-[1,1′-biphenyl]-4-yl)-6-chloro-1H-indazol-3-yl)propanoic acid], on AMPK 111, the EC50 came to 21 nM and the Emax was 86%. Further, on AMPK 221, the EC50 was 69 nM and the maximal response (Emax) is 67%.

On to `O=C(O)CCc1n[nH]c2cc(Cl)c(-c3ccc(-c4ccccc4O)cc3F)cc12` [Example 3, 3-(6-Chloro-5-(3-fluoro-2′-hydroxy-[1,1′-biphenyl]-4-yl)-1H-indazol-3-yl)propanoic acid], for which, on AMPK 111, the EC50 came to 189 nM and the Emax was 83%. Further, at AMPK 221, a half-maximal effect (EC50) was put at 528 nM and the Emax was 61%.

With `O=C(O)CCc1n[nH]c2cc(Cl)c(-c3ccc(-c4c(Cl)ccc(F)c4O)cc3)cc12` [Example 67, 3-(6-chloro-5-(6′-chloro-3′-fluoro-2′-hydroxy-[1,1′-biphenyl]-4-yl)-1H-indazol-3-yl)propanoic acid], the values for the EC50 on AMPK 111 and at AMPK 221 were 69 nM and 953 nM, respectively. Further, the results for the Emax on AMPK 111 and at AMPK 221 were 85% and 63%, respectively.

At AMPK 111, `O=C(O)CCc1n[nH]c2cc(Cl)c(-c3ccc(-c4ccc(OCCN5CCOCC5)cc4)cc3)cc12` [Example 38, 3-(6-chloro-5-(4′-(2-morpholinoethoxy)-[1,1′-biphenyl]-4-yl)-1H-indazol-3-yl)propanoic acid] came in with an EC50 of 95 nM and a maximal response (Emax) of 67%. Besides, at AMPK 221, a half-maximal response (EC50) required 209 nM and the Emax is 64%.

At AMPK 111, `O=C(O)CCc1n[nH]c2cc(Cl)c(-c3ccc(-c4ccc(C(=O)O)cc4O)cc3)cc12` [Example 36, 4′-(3-(2-carboxyethyl)-6-chloro-1H-indazol-5-yl)-2-hydroxy-[1,1′-biphenyl]-4-carboxylic acid] had an EC50 of 45 nM and an Emax of 68%. For the same molecule, at AMPK 221, a half-maximal response (EC50) required 200 nM and the Emax was 49%.

At AMPK 111, `COc1c(F)ccc(-c2ccc(-c3cc4c(CCC(=O)O)n[nH]c4cc3Cl)cc2)c1O` [Example 16, 3-(6-chloro-5-(4′-fluoro-2′-hydroxy-3′-methoxy-[1,1′-biphenyl]-4-yl)-1H-indazol-3-yl)propanoic acid] registered a concentration for a half-maximal effect (EC50) of 37 nM and an Emax of 86%. On AMPK 221, this molecule had an EC50 of 81 nM and a maximum response (Emax) of 64%.

As to `O=C(O)CCc1n[nH]c2cc(Cl)c(-c3ccc(-c4ccccc4O)cc3)cc12` [Example 1, 3-(6-Chloro-5-(2′-hydroxy-[1,1′-biphenyl]-4-yl)-1H-indazol-3-yl)propanoic acid], the metabolite profile result in data set [1] was “oxidation and glucuronidation”. For the same molecule, at AMPK 111, the EC50 stood at 47 nM and the Emax was 75%. On AMPK 221, this molecule yielded an EC50 of 88 nM and an Emax of 57%.

On AMPK 111, `NC(=O)c1ccc(-c2ccc(-c3cc4c(CCC(=O)O)n[nH]c4cc3Cl)cc2)cc1` [Example 5, 3-(5-(4′-Carbamoyl-[1,1′-biphenyl]-4-yl)-6-chloro-1H-indazol-3-yl)propanoic acid] registered an EC50 of 89 nM and an Emax of 59%. At AMPK 221, this molecule registered an EC50 of 37 nM and an Emax of 62%.

Consider `Cc1cncc(O)c1-c1ccc(-c2cc3c(CCC(=O)O)n[nH]c3cc2Cl)cc1` [Example 27, 3-(6-chloro-5-(4-(3-hydroxy-5-methylpyridin-4-yl)phenyl)-1H-indazol-3-yl)propanoic acid], for which the EC50 at AMPK 111 turned out to be 7 nM; on AMPK 221, 125 nM. Besides, the values for the Emax on AMPK 111 and on AMPK 221 were 87% and 62%, respectively.

For the molecule `COc1cccc(-c2ccc(-c3cc4c(CCCC(=O)O)n[nH]c4cc3Cl)cc2)c1O` [Example 74, 4-(6-chloro-5-(2′-hydroxy-3′-methoxy-[1,1′-biphenyl]-4-yl)-1H-indazol-3-yl)butanoic acid], the EC50 turned out to be 92 nM on AMPK 111 and 66 nM at AMPK 221. The Emax on AMPK 111 worked out at 80%; on AMPK 221, 69%.

Consider `O=C(O)CNc1n[nH]c2cc(Cl)c(-c3ccc(-c4ccccc4O)cc3)cc12` [Example 19, (6-Chloro-5-(2′-hydroxy-[1,1′-biphenyl]-4-yl)-1H-indazol-3-yl)glycine], for which, on AMPK 111, a half-maximal effect (EC50) was put at 54 nM and the Emax worked out at 79%. At AMPK 221, the response was half-maximal at 144 nM (EC50) and the Emax stood at 34%.
